Literature values, collected in patent US11034961B2 (priority 2015, dated 2021).

Key:
[1] = administered by IV
[2] = infusion into the scala tympani

SMILES	sufferers in whom the noise associated with tinnitus is reduced or eliminated [1]	Meniere's disease symptoms [2]
CCN(CC)CC(=O)Nc1c(C)cccc1C [Lidocaine]	60-80%	
Cc1ccccc1C(=O)Nc1ccc(C(=O)N2CCCC(N(C)C)c3ccccc32)cc1 (centres unmarked) [OPC-31260]		marked reduction
